From patent US20240238290A1, “USE OF COMPLEMENT FACTOR D INHIBITOR FOR TREATMENT OF GENERALIZED MYASTHENIA GRAVIS” (Alexion Pharmaceuticals, Inc., priority 2021, published 2024)

Tests used:
[1] = Phase 1 single ascending and multiple ascending dose studies, PK; assay type: in vivo, human; conditions: for PK exposures versus dose: healthy volunteers
[2] = tested on: complement alternative pathway (AP) activity; assay: AP inhibition in the AP Wieslab assay (PD), Phase 1 healthy volunteer studies; assay type: in vivo, human
Protocol: (§1) In addition, both dosage regimens provided complete (>90%) and sustained inhibition of AP activity throughout the 12-hour dosing interval. Therefore, 120 mg BID is selected as the minimum therapeutic dosage.

[3] = Safety and safety margin of multiple dose regimens versus NOAEL exposures from nonclinical chronic toxicology studies; assay type: in vivo, human; conditions: multiple dose study
Protocol: as §1

[4] = tested on: plasma Bb; assay: Biomarkers of AP activity in vivo (plasma Bb levels)
[5] = target: FD (complement factor D) (Homo sapiens, UniProt P00746); assay: Inhibition of factor D
FD (complement factor D), sequence (P00746 26-253): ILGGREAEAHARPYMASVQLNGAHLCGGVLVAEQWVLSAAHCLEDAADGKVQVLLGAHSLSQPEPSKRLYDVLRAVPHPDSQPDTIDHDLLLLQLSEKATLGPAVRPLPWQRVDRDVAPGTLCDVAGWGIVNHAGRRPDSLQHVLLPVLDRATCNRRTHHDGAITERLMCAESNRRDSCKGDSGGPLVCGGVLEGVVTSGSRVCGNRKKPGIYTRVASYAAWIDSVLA

Structure (SMILES): CC(=O)c1nn(CC(=O)N2[C@H](C(=O)Nc3nc(Br)ccc3C)C[C@@]3(C)C[C@@H]23)c2ccc(-c3cnc(C)nc3)cc12 [Compound 1, vemircopan]
- variability in the PK and PD data and PK/PD relationship ([1]; Phase 1 healthy volunteers): large variabilities
- PK exposures versus dose ([1]; following single doses): increased dose proportionally
- PK exposures versus dose ([1]; multiple doses at steady state, 40 mg BID to 200 mg BID): greater than dose proportional manner
- inhibition at 120 mg ([2]; Homo sapiens, 120 mg BID, sustained throughout the 12-hour dosing interval): > 90%
- inhibition at 200 mg ([2]; Homo sapiens, 200 mg BID, sustained throughout the 12-hour dosing interval): > 90%
- PD activity as determined by AP inhibition in the AP Wieslab assay ([2]; healthy volunteers, Phase 1): increased with increasing exposure
- inhibition of complement AP activity in vivo ([2]; in vivo): dose dependent inhibition
- safety and effectiveness of dosage regimen ([3]; 120 mg BID): safe and effective
- safety margin in AUC0-24 over exposures at NOAEL ([3]; 120 mg BID): ≥ 10 fold
- safety margin in Cmax over exposures at NOAEL ([3]; 120 mg BID): ≥ 10 fold
- safety and effectiveness of dosage regimen ([3]; 200 mg BID): safe and effective
- safety margin in AUC0-24 over exposures at NOAEL ([3]; 200 mg BID): ≥ 10 fold
- safety margin in Cmax over exposures at NOAEL ([3]; 200 mg BID): ≥ 10 fold
- plasma Bb levels following administration [4]: significant dose-dependent reductions
- inhibition of FD [5]: potent inhibitor
